Tests used:
Format in all cases: biochemical
[1] = target: Jarid1A (Homo sapiens (Human), UniProt P29375); test: Jarid1A in vitro enzyme inhibition assay (TR-FRET)
Text: The enzymatic assay of Jarid1A activity is based upon Time Resolved-Fluorescence Resonance Energy Transfer (TR-FRET) detection.

[2] = target: Jarid1B (Homo sapiens (Human), UniProt Q9UGL1); test: Jarid1B in vitro enzyme inhibition assay (TR-FRET)
Experimental: This assay determines the ability of a test compound to inhibit Jarid1A, Jarid1B, JMJD2C, and JMJD2A demethylase activity.
The ability of test compounds to inhibit the activity of Jarid1B was determined in 384-well plate format under the following reaction conditions: 0.8 nM Jarid1B, 300 nM H3K4me3-biotin labeled peptide (Anaspec cat #64357), 2 μM alpha-ketoglutaric acid in assay buffer of 50 mM HEPES, pH7.3, 0.005% Brij35, 0.5 mM TCEP, 0.2 mg/ml BSA, 50 μM sodium L-ascorbate, and 2 μM ammonium iron(II) sulfate. Reaction product was determined quantitatively by TR-FRET after the addition of detection reagent Phycolink Streptavidin-allophycocyanin (Prozyme) and Europium-anti-mono- or di-methylated histone H3 lysine 4 (H3K4me1-2) antibody (PerkinElmer) in the presence of 5 mM EDTA in LANCE detection buffer (PerkinElmer) at a final concentration of 25 nM and 1 nM, respectively.
The assay reaction was initiated by the following: 2 μl of the mixture of 900 nM H3K4me3-biotin labeled peptide and 6 μM alpha-ketoglutaric acid with 2 μl of 11-point serial diluted inhibitor in 3% DMSO was added to each well of the plate, followed by the addition of 2 μl of 2.4 nM Jarid1B to initiate the reaction. The reaction mixture was incubated at room temperature for 30 minutes, and terminated by the addition of 6 μl of 5 mM EDTA in LANCE detection buffer containing 50 nM Phycolink Streptavidin-allophycocyanin and 2 nM Europium-anti-H3K4me1-2 antibody. Plates were read by EnVisionMultilabel Reader in TR-FRET mode (excitation at 320 nm, emission at 615 nm and 665 nm) after 1 hour incubation at room temperature. A ratio was calculated (665/615) for each well and fitted to determine inhibition constant (IC50).

[3] = target: JMJD2C (Homo sapiens (Human), UniProt Q9H3R0); test: JMJD2C in vitro enzyme inhibition assay (TR-FRET)
Sequence of JMJD2C (Q9H3R0 2-372): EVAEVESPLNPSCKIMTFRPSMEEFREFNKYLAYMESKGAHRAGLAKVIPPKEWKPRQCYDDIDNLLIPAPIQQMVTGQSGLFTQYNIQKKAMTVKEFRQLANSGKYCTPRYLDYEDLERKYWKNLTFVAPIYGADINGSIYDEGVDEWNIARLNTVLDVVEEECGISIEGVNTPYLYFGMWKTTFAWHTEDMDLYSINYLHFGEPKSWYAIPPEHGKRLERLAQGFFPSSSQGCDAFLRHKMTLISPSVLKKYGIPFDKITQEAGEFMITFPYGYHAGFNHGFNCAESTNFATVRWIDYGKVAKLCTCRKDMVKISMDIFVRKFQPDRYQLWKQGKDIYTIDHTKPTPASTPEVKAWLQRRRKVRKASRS

Sequence of Jarid1B (Q9UGL1 2-751): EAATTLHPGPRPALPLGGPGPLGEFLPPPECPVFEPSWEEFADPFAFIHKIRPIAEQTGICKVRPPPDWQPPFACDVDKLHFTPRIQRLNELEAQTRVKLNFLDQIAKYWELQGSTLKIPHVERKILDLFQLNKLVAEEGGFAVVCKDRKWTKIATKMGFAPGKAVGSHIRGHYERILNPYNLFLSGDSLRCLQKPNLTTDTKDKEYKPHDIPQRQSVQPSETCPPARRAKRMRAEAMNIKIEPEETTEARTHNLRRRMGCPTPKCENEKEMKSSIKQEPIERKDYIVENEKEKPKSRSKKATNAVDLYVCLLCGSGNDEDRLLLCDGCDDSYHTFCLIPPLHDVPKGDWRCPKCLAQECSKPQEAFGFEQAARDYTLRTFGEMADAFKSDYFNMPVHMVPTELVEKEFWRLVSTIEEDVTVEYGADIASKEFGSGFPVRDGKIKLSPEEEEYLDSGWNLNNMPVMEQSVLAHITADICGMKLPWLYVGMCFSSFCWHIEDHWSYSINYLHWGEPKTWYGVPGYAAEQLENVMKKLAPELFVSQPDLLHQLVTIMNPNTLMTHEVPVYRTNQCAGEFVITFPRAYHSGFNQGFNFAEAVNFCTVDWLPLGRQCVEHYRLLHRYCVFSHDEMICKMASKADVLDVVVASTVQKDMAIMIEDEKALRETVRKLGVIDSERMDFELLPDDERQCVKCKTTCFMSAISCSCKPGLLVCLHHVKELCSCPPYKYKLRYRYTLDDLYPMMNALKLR
Sequence of Jarid1A (P29375 1-1090): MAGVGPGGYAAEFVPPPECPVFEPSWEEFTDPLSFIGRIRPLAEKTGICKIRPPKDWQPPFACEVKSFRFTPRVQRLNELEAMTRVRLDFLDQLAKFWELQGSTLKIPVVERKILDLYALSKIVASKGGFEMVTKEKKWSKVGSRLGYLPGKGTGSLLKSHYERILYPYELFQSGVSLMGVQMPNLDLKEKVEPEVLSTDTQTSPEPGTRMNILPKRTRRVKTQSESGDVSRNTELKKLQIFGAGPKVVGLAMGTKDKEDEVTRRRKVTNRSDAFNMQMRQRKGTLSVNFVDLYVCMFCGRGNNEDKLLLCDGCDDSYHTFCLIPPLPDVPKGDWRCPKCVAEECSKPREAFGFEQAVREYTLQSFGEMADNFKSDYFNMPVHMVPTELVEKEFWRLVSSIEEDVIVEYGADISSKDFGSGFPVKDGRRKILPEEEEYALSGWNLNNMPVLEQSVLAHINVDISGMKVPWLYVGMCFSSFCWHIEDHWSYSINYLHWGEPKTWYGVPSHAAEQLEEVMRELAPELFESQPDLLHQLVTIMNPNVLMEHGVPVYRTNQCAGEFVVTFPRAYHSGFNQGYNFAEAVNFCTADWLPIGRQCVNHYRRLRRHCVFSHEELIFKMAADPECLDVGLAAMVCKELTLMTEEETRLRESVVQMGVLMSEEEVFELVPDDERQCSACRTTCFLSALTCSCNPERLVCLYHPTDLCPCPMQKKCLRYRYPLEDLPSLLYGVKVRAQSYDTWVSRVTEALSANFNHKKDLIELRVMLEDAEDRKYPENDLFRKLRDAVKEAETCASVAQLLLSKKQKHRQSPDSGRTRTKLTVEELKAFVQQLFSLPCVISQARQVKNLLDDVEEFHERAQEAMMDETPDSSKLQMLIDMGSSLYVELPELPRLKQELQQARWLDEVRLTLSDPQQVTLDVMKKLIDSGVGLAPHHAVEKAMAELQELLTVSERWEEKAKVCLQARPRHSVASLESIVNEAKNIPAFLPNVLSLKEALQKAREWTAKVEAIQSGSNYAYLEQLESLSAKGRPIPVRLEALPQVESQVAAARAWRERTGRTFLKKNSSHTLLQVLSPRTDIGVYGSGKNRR

| SMILES | IC50 [1] [nM] | IC50 [2] [nM] | IC50 [3] [nM] |
| --- | --- | --- | --- |
| O=C(O)c1ccnc(-n2nccc2OCC2CCC(F)(F)CC2)c1 [Example 71, 2-{5-[(4,4-difluorocyclohexyl)methoxy]-1H-pyrazol-1-yl}pyridine-4-carboxylic acid] | < 100 | < 100 | 100 to 1000 |
| O=C(O)c1ccnc(-n2nccc2OCc2ccncc2)c1 [Example 61, 2-[5-(pyridin-4-ylmethoxy)-1H-pyrazol-1-yl]pyridine-4-carboxylic acid] | < 100 | < 100 | < 100 |
| Cc1cccc(-c2ccnn2-c2cc(C(=O)O)ccn2)c1 [Example 13, 2-(5-m-tolyl-1H-pyrazol-1-yl)isonicotinic acid] | 100 to 1000 | 100 to 1000 | 100 to 1000 |
| O=C(O)c1ccnc(-n2nccc2-c2ccc3cn[nH]c3c2)c1 [Example 24, 2-[5-(1H-indazol-6-yl)-1H-pyrazol-1-yl]pyridine-4-carboxylic acid] | 100 to 1000 | 100 to 1000 | 1000 to 10000 |
| O=C(O)c1ccnc(-n2nccc2-c2ccc(Br)cc2)c1 [Example 46, 2-[5-(4-bromophenyl)-1H-pyrazol-1-yl]pyridine-4-carboxylic acid] | 100 to 1000 | 100 to 1000 | 1000 to 10000 |
| O=C(O)c1ccnc(-n2nccc2OC2CCCc3cc(Cl)ccc32)c1 (stereo not drawn) [Example 149, 2-[5-[(6-chloro-1,2,3,4-tetrahydronaphthalen-1-yl)oxy]pyrazol-1-yl]pyridine-4-carboxylic acid] | 100 to 1000 | < 100 | 1000 to 10000 |
| O=C(O)c1ccnc(-n2nccc2OCc2ccc(F)c(Cl)c2)c1 [Example 76, 2-{5-[(3-chloro-4-fluorobenzyl)oxy]-1H-pyrazol-1-yl}pyridine-4-carboxylic acid] | < 100 | < 100 | < 100 |
| CC(Oc1cc(Cl)ccc1COc1ccnn1-c1cc(C(=O)O)ccn1)c1ccccc1 (stereo not drawn) [Example 136, 2-[5-[[4-chloro-2-(1-phenylethoxy)phenyl]methoxy]pyrazol-1-yl]pyridine-4-carboxylic acid] | 100 to 1000 | 100 to 1000 | 1000 to 10000 |
| CCCCc1ccn(-c2cc(C(=O)O)ccn2)n1 [Example 45, 2-(3-butyl-1H-pyrazol-1-yl)pyridine-4-carboxylic acid] | 100 to 1000 | 100 to 1000 | 100 to 1000 |
| Cc1ccc(-c2cc(C)nn2-c2cc(C(=O)O)ccn2)cc1 [Example 29, 2-(3-methyl-5-p-tolyl-1H-pyrazol-1-yl)isonicotinic acid] | 1000 to 10000 | 1000 to 10000 | 1000 to 10000 |
| O=C(O)c1ccnc(-n2nccc2OC2CCCc3cc(F)ccc32)c1 (stereo not drawn) [Example 148, 2-[5-[(6-fluoro-1,2,3,4-tetrahydronaphthalen-1-yl)oxy]pyrazol-1-yl]pyridine-4-carboxylic acid] | 100 to 1000 | 100 to 1000 | 1000 to 10000 |
| Cc1ccnn1-c1cc(C(=O)O)ccn1 [Example 31, 2-(5-methyl-1H-pyrazol-1-yl)isonicotinic acid] | 1000 to 10000 | 1000 to 10000 | 100 to 1000 |
| COc1ccc(COc2ccnn2-c2cc(C(=O)O)ccn2)cc1 [Example 43, 2-{5-[(4-methoxybenzyl)oxy]-1H-pyrazol-1-yl}pyridine-4-carboxylic acid] | < 100 | < 100 | 100 to 1000 |
| O=C(O)c1ccnc(-n2nccc2OCc2ccc(C3CC3)c(F)c2)c1 [Example 155, 2-[5-[(4-cyclopropyl-3-fluorophenyl)methoxy]pyrazol-1-yl]pyridine-4-carboxylic acid] | 100 to 1000 | < 100 | 1000 to 10000 |
| CCc1cnn(-c2cc(C(=O)O)ccn2)c1OCc1ccc(F)cc1 [Example 85, 2-[4-ethyl-5-[(4-fluorophenyl)methoxy]pyrazol-1-yl]pyridine-4-carboxylic acid] | < 100 | < 100 | 100 to 1000 |

Source: patent US9604961B2, “Histone demethylase inhibitors” (Celgene Quanticel Research, Inc., priority 2012, dated 2017)
